Tested on: MV-4-11 cells
Assay: Gene expression microarray analysis (Affymetrix PrimeView) and GSEA
Type: cell-based, human
Parameters: RFU PODN (11730768_x_at) / Fold change /veh PODN (11730768_x_at) / RFU LINC00158 (11744669_a_at) / Fold change /veh LINC00158 (11744669_a_at) / RFU DUSP10 (11751237_a_at) / Fold change /veh DUSP10 (11751237_a_at) / RFU ID3 (11757404_x_at) / Fold change /veh ID3 (11757404_x_at) / RFU PLEKHG5 (11737974_s_at) / Fold change /veh PLEKHG5 (11737974_s_at) / RFU LRRC4B (11730491_at) / Fold change /veh LRRC4B (11730491_at) / RFU GIMAP4 (11747438_a_at) / Fold change /veh GIMAP4 (11747438_a_at) / RFU KRT8 (11758183_x_at) / Fold change /veh KRT8 (11758183_x_at) / RFU CNN1 (11734310_a_at) / Fold change /veh CNN1 (11734310_a_at) / RFU VPS37D (11726825_at) / Fold change /veh VPS37D (11726825_at) / RFU C10orf10 (11716522_x_at) / Fold change /veh C10orf10 (11716522_x_at) / RFU KIR2DL2 /// KIR2DL4 /// KIR2DL5A /// KIR2DL5B /// KIR2DS1 /// KIR2DS2 /// KIR2DS3 /// KIR2DS4 /// KIR3DL3 /// KIR3DL3 /// KIR3DS1 (11738374_at) / Fold change /veh KIR2DL2 /// KIR2DL4 /// KIR2DL5A /// KIR2DL5B /// KIR2DS1 /// KIR2DS2 /// KIR2DS3 /// KIR2DS4 /// KIR3DL3 /// KIR3DL3 /// KIR3DS1 (11738374_at) / RFU C1QL1 (11718748_at) / Fold change /veh C1QL1 (11718748_at) / RFU TMPRSS4 (11747572_a_at) / Fold change /veh TMPRSS4 (11747572_a_at) / RFU HAMP (11756126_x_at) / Fold change /veh HAMP (11756126_x_at) / RFU RNFT2 (11725882_a_at) / Fold change /veh RNFT2 (11725882_a_at) / RFU NR4A2 (11747474_a_at) / Fold change /veh NR4A2 (11747474_a_at) / RFU ABCC12 (11746883_a_at) / Fold change /veh ABCC12 (11746883_a_at) / RFU TMEM136 (11760407_x_at) / Fold change /veh TMEM136 (11760407_x_at) / RFU CLDN22 /// WWC2 (11732394_at) / Fold change /veh CLDN22 /// WWC2 (11732394_at) / RFU HLA-DPB1 (11760878_x_at) / Fold change /veh HLA-DPB1 (11760878_x_at) / RFU SPINT1 (11716480_a_at) / Fold change /veh SPINT1 (11716480_a_at) / RFU GAP43 (11754022_s_at) / Fold change /veh GAP43 (11754022_s_at) / RFU A4GNT (11735810_at) / Fold change /veh A4GNT (11735810_at) / RFU PRB3 (11715151_x_at) / Fold change /veh PRB3 (11715151_x_at) / RFU TUBB4B (11761932_at) / Fold change /veh TUBB4B (11761932_at) / RFU CAPN14 (11732068_a_at) / Fold change /veh CAPN14 (11732068_a_at) / RFU TMCC2 (11721928_a_at) / Fold change /veh TMCC2 (11721928_a_at) / RFU IRGQ (11745062_a_at) / Fold change /veh IRGQ (11745062_a_at) / RFU FAM174B (11720279_a_at) / Fold change /veh FAM174B (11720279_a_at) / RFU TMPRSS4 (11748680_a_at) / Fold change /veh TMPRSS4 (11748680_a_at) / RFU FAM212B (11763350_a_at) / Fold change /veh FAM212B (11763350_a_at) / RFU PLEKHG5 (11743358_a_at) / Fold change /veh PLEKHG5 (11743358_a_at) / RFU ZSCAN30 (11745921_a_at) / Fold change /veh ZSCAN30 (11745921_a_at) / RFU CMKLR1 (11741424_a_at) / Fold change /veh CMKLR1 (11741424_a_at) / RFU LOC101060620 /// MAPK8IP1 (11723275_at) / Fold change /veh LOC101060620 /// MAPK8IP1 (11723275_at) / RFU SPTSSB (11747773_x_at) / Fold change /veh SPTSSB (11747773_x_at) / RFU PRSS12 (11739890_at) / Fold change /veh PRSS12 (11739890_at) / RFU BIN1 (11741810_x_at) / Fold change /veh BIN1 (11741810_x_at) / RFU WNT11 (11732464_a_at) / Fold change /veh WNT11 (11732464_a_at) / RFU C10orf10 (11716521_a_at) / Fold change /veh C10orf10 (11716521_a_at) / RFU C5orf56 (11738089_at) / Fold change /veh C5orf56 (11738089_at) / RFU CYB561 (11721691_x_at) / Fold change /veh CYB561 (11721691_x_at) / RFU ANKRD19P (11752326_a_at) / Fold change /veh ANKRD19P (11752326_a_at) / RFU OR2T12 /// OR2T33 /// OR2T8 (11738714_s_at) / Fold change /veh OR2T12 /// OR2T33 /// OR2T8 (11738714_s_at) / RFU VCAN (11748164_a_at) / Fold change /veh VCAN (11748164_a_at) / RFU JSRP1 (11732532_at) / Fold change /veh JSRP1 (11732532_at) / RFU KRTAP10-11 (11738290_x_at) / Fold change /veh KRTAP10-11 (11738290_x_at) / RFU MYO3A (11730013_a_at) / Fold change /veh MYO3A (11730013_a_at) / RFU EBF3 (11725865_a_at) / Fold change /veh EBF3 (11725865_a_at) / RFU CAMK2N1 (11719241_x_at) / Fold change /veh CAMK2N1 (11719241_x_at) / RFU C5orf56 (11738088_a_at) / Fold change /veh C5orf56 (11738088_a_at) / RFU OLFML3 (11715873_a_at) / Fold change /veh OLFML3 (11715873_a_at) / RFU LOC100653217 /// NTM (11731650_a_at) / Fold change /veh LOC100653217 /// NTM (11731650_a_at) / RFU MAPK11 (11762145_a_at) / Fold change /veh MAPK11 (11762145_a_at) / RFU FIZ1 (11724087_x_at) / Fold change /veh FIZ1 (11724087_x_at) / RFU OASL (11726364_x_at) / Fold change /veh OASL (11726364_x_at) / RFU SOX15 (11748057_x_at) / Fold change /veh SOX15 (11748057_x_at) / RFU CD79A (11719716_a_at) / Fold change /veh CD79A (11719716_a_at) / RFU HIST1H1D (11736915_at) / Fold change /veh HIST1H1D (11736915_at) / RFU CASKIN2 (11723855_a_at) / Fold change /veh CASKIN2 (11723855_a_at) / RFU LOC730098 (11760151_x_at) / Fold change /veh LOC730098 (11760151_x_at) / RFU OR4N2 (11742367_at) / Fold change /veh OR4N2 (11742367_at) / RFU PRRT2 (11749266_a_at) / Fold change /veh PRRT2 (11749266_a_at) / RFU SNX32 (11753110_a_at) / Fold change /veh SNX32 (11753110_a_at) / RFU CDHR5 (11726645_a_at) / Fold change /veh CDHR5 (11726645_a_at) / RFU RCAN1 (11760418_a_at) / Fold change /veh RCAN1 (11760418_a_at) / RFU FAM167A (11723789_a_at) / Fold change /veh FAM167A (11723789_a_at) / RFU FAM26E (11764081_at) / Fold change /veh FAM26E (11764081_at) / RFU ISYNA1 (11749810_s_at) / Fold change /veh ISYNA1 (11749810_s_at) / RFU ACY1 (11761880_at) / Fold change /veh ACY1 (11761880_at) / RFU 11764098_at / Fold change /veh 11764098_at / RFU SAMD14 (11745864_x_at) / Fold change /veh SAMD14 (11745864_x_at) / RFU NPB (11741838_a_at) / Fold change /veh NPB (11741838_a_at) / RFU TMPRSS6 (11731388_a_at) / Fold change /veh TMPRSS6 (11731388_a_at) / RFU KRTAP10-2 (11738614_at) / Fold change /veh KRTAP10-2 (11738614_at) / RFU ARHGAP8 /// PRR5-ARHGAP8 (11727945_x_at) / Fold change /veh ARHGAP8 /// PRR5-ARHGAP8 (11727945_x_at) / RFU KRTAP5-7 /// NADSYN1 (11734609_at) / Fold change /veh KRTAP5-7 /// NADSYN1 (11734609_at) / RFU RASL12 (11751679_a_at) / Fold change /veh RASL12 (11751679_a_at) / RFU CDKN2B (11736163_a_at) / Fold change /veh CDKN2B (11736163_a_at) / RFU PRF1 (11729649_at) / Fold change /veh PRF1 (11729649_at) / RFU, ZNF638 /// ZNF638-IT1 / Fold change vs veh, ZNF638 /// ZNF638-IT1 / RFU, PANK3 / Fold change vs veh, PANK3 / RFU, SH3YL1 / Fold change vs veh, SH3YL1 / RFU, ZEB2 / Fold change vs veh, ZEB2 / RFU, NRIP1 / Fold change vs veh, NRIP1 / RFU, PTTG1IP / Fold change vs veh, PTTG1IP / RFU, CAPN2 / Fold change vs veh, CAPN2 / RFU, MED14 / Fold change vs veh, MED14 / RFU, SNORA58 / Fold change vs veh, SNORA58 / RFU, C1orf63 / Fold change vs veh, C1orf63 / RFU, LRRFIP1 / Fold change vs veh, LRRFIP1 / RFU, NDUFAF7 / Fold change vs veh, NDUFAF7 / RFU, SLC12A2 / Fold change vs veh, SLC12A2 / RFU, IBTK / Fold change vs veh, IBTK / RFU, ESF1 / Fold change vs veh, ESF1 / Fold change vs veh, TMEM50B / RFU, TAOK1 / Fold change vs veh, TAOK1 / RFU, ACBD3 / Fold change vs veh, ACBD3 / RFU, TMA16 / Fold change vs veh, TMA16 / RFU, RWDD3 / Fold change vs veh, RWDD3 / RFU, BCAT1 / Fold change vs veh, BCAT1 / RFU, EDEM3 / Fold change vs veh, EDEM3 / RFU, TMEM33 / Fold change vs veh, TMEM33 / RFU, WDR75 / Fold change vs veh, WDR75 / RFU, AHCTF1 / Fold change vs veh, AHCTF1 / RFU, TFRC / Fold change vs veh, TFRC / RFU, ZDHHC17 / Fold change vs veh, ZDHHC17 / RFU, NOM1 / Fold change vs veh, NOM1 / RFU, ARL8B / Fold change vs veh, ARL8B / RFU, ZBTB11 / Fold change vs veh, ZBTB11 / RFU, TAMM41 / Fold change vs veh, TAMM41 / RFU, KIAA1704 /// LOC100996395 / Fold change vs veh, KIAA1704 /// LOC100996395 / RFU, ING1 / Fold change vs veh, ING1 / RFU, TRMT61B / Fold change vs veh, TRMT61B / RFU, FUBP3 / Fold change vs veh, FUBP3 / RFU, TP53 / Fold change vs veh, TP53 / RFU, TNKS2 / Fold change vs veh, TNKS2 / RFU, ZFP14 / Fold change vs veh, ZFP14 / RFU, ACTR2 / Fold change vs veh, ACTR2 / RFU, PPP3R1 / Fold change vs veh, PPP3R1 / RFU, PIK3R1 / Fold change vs veh, PIK3R1 / RFU, HNRNPA1 / Fold change vs veh, HNRNPA1 / RFU, RNF170 / Fold change vs veh, RNF170 / RFU, ZNF28 / Fold change vs veh, ZNF28 / RFU, RNGTT / Fold change vs veh, RNGTT / RFU, OGT / Fold change vs veh, OGT / RFU, BRD1 / Fold change vs veh, BRD1 / RFU, MARS / Fold change vs veh, MARS / RFU, ZNF655 / Fold change vs veh, ZNF655 / RFU, FAHD1 / Fold change vs veh, FAHD1 / RFU, BDP1 / Fold change vs veh, BDP1 / RFU, LRRCC1 / Fold change vs veh, LRRCC1 / RFU, ARID1A / Fold change vs veh, ARID1A / RFU, ZNF146 / Fold change vs veh, ZNF146 / RFU, ZNF330 / Fold change vs veh, ZNF330 / RFU, GPN3 / Fold change vs veh, GPN3 / RFU, C9orf123 / Fold change vs veh, C9orf123 / RFU, N4BP2L2 / Fold change vs veh, N4BP2L2 / RFU, ARFIP1 / Fold change vs veh, ARFIP1 / RFU, FAM179B / Fold change vs veh, FAM179B / RFU, BCL10 / Fold change vs veh, BCL10 / RFU, UHRF1BP1L / Fold change vs veh, UHRF1BP1L / RFU, BET1 / Fold change vs veh, BET1 / RFU, CNOT2 / Fold change vs veh, CNOT2 / RFU, ZNF268 / Fold change vs veh, ZNF268 / Fold change vs veh, ZNF507 / RFU, DGCR2 / Fold change vs veh, DGCR2 / RFU, WDSUB1 / Fold change vs veh, WDSUB1 / Fold change vs veh, HSP90B1 /// MIR3652 / RFU, ADSS / Fold change vs veh, ADSS / RFU, GK / Fold change vs veh, GK / RFU, ZNF148 / Fold change vs veh, ZNF148 / RFU, TAF9 / Fold change vs veh, TAF9 / RFU, SLC1A5 / Fold change vs veh, SLC1A5 / RFU, SLMO2 / Fold change vs veh, SLMO2 / RFU, ABCC4 / Fold change vs veh, ABCC4 / RFU, LOC101060439 /// RAP1B / Fold change vs veh, LOC101060439 /// RAP1B / RFU, RFX7 / Fold change vs veh, RFX7 / RFU, GTPBP10 / Fold change vs veh, GTPBP10 / RFU, CNEP1R1 / Fold change vs veh, CNEP1R1 / RFU, BIVM-ERCC5 /// ERCC5 / Fold change vs veh, BIVM-ERCC5 /// ERCC5 / RFU, ILF3 / Fold change vs veh, ILF3 / RFU 11762660_at / Fold change /veh 11762660_at / RFU VCAN (11757783_s_at) / Fold change /veh VCAN (11757783_s_at) / RFU DDX43 (11728927_at) / Fold change /veh DDX43 (11728927_at) / RFU KRT8 (11758188_x_at) / Fold change /veh KRT8 (11758188_x_at) / RFU NKD1 (11759106_at) / Fold change /veh NKD1 (11759106_at) / RFU SRD5A1 (11742802_a_at) / Fold change /veh SRD5A1 (11742802_a_at) / RFU TPSAB1 /// TPSB2 (11721975_s_at) / Fold change /veh TPSAB1 /// TPSB2 (11721975_s_at) / RFU GSTM3 (11746129_a_at) / Fold change /veh GSTM3 (11746129_a_at) / RFU IL23R (11737362_x_at) / Fold change /veh IL23R (11737362_x_at) / RFU TMEM51 (11727254_a_at) / Fold change /veh TMEM51 (11727254_a_at) / RFU PIWIL2 (11732686_x_at) / Fold change /veh PIWIL2 (11732686_x_at) / RFU ORM1 (11744905_x_at) / Fold change /veh ORM1 (11744905_x_at) / RFU CCDC152 (11743942_at) / Fold change /veh CCDC152 (11743942_at) / RFU ECM1 (11717891_a_at) / Fold change /veh ECM1 (11717891_a_at) / RFU IL23R (11748794_a_at) / Fold change /veh IL23R (11748794_a_at) / RFU TNFAIP8L3 (11732012_x_at) / Fold change /veh TNFAIP8L3 (11732012_x_at) / RFU MBOAT4 (11741988_at) / Fold change /veh MBOAT4 (11741988_at) / RFU 11764193_at / Fold change /veh 11764193_at / RFU TMEM53 (11763286_at) / Fold change /veh TMEM53 (11763286_at) / RFU MAGEB2 (11727129_at) / Fold change /veh MAGEB2 (11727129_at) / RFU TMEM200A (11744735_a_at) / Fold change /veh TMEM200A (11744735_a_at) / RFU CCDC152 (11751479_a_at) / Fold change /veh CCDC152 (11751479_a_at) / RFU FAM211A (11726209_a_at) / Fold change /veh FAM211A (11726209_a_at) / RFU RGS16 (11746705_a_at) / Fold change /veh RGS16 (11746705_a_at) / RFU VCAN (11755009_s_at) / Fold change /veh VCAN (11755009_s_at) / RFU RHOB (11743442_s_at) / Fold change /veh RHOB (11743442_s_at) / RFU RGS16 (11720943_a_at) / Fold change /veh RGS16 (11720943_a_at) / RFU RGS16 (11720944_at) / Fold change /veh RGS16 (11720944_at) / RFU, VPS4B / Fold change vs veh, VPS4B / RFU, CREB1 / Fold change vs veh, CREB1 / RFU, DNAJC13 / Fold change vs veh, DNAJC13 / RFU, GNAQ / Fold change vs veh, GNAQ / RFU, CDK5R1 / Fold change vs veh, CDK5R1 / RFU, ZRANB3 / Fold change vs veh, ZRANB3 / RFU, CUL4A / Fold change vs veh, CUL4A / RFU, CCNY / Fold change vs veh, CCNY / RFU, UFL1 / Fold change vs veh, UFL1 / RFU, COG3 / Fold change vs veh, COG3 / RFU, DIAPH2 / Fold change vs veh, DIAPH2 / RFU, SKA2 / Fold change vs veh, SKA2 / RFU, AFF3 / Fold change vs veh, AFF3 / RFU, LMF1 / Fold change vs veh, LMF1 / RFU, IPO11 / Fold change vs veh, IPO11 / RFU, DFFB / Fold change vs veh, DFFB / RFU, FOXP1 / Fold change vs veh, FOXP1 / RFU, CARD8 / Fold change vs veh, CARD8 / RFU, STRN3 / Fold change vs veh, STRN3 / RFU, ADK / Fold change vs veh, ADK / RFU, RASSF2 / Fold change vs veh, RASSF2 / RFU, WIPF1 / Fold change vs veh, WIPF1 / RFU, LARP1B / Fold change vs veh, LARP1B / RFU, RASA1 / Fold change vs veh, RASA1 / RFU, RB1 / Fold change vs veh, RB1 / RFU, PPFIA1 / Fold change vs veh, PPFIA1 / RFU, MAT2A / Fold change vs veh, MAT2A / RFU, CCT5 / Fold change vs veh, CCT5 / RFU, WDR92 / Fold change vs veh, WDR92 / RFU, CUX1 / Fold change vs veh, CUX1 / RFU, TTC7A / Fold change vs veh, TTC7A / RFU, TMEM135 / Fold change vs veh, TMEM135 / RFU, DEPTOR / Fold change vs veh, DEPTOR / RFU, CPM / Fold change vs veh, CPM / RFU, DNAJB6 / Fold change vs veh, DNAJB6 / RFU, CACNA2D3 / Fold change vs veh, CACNA2D3 / RFU, DTX4 / Fold change vs veh, DTX4 / RFU, TFCP2 / Fold change vs veh, TFCP2 / RFU, GMCL1 /// GMCL1P1 / Fold change vs veh, GMCL1 /// GMCL1P1 / RFU, AEBP2 / Fold change vs veh, AEBP2 / RFU, SNHG1 /// SNORD22 /// SNORD25 /// SNORD26 /// SNORD27 /// SNORD28 /// SNORD29 /// SNORD31 / Fold change vs veh, SNHG1 /// SNORD22 /// SNORD25 /// SNORD26 /// SNORD27 /// SNORD28 /// SNORD29 /// SNORD31 / Fold change (Aza/veh), C12orf56 (ProbeSet 11735607_a_at) / Fold change (ACY-1035/veh), C12orf56 (ProbeSet 11735607_a_at) / Fold change (Aza/veh), FGFR1OP (ProbeSet 11751329_s_at) / Fold change (ACY-1035/veh), FGFR1OP (ProbeSet 11751329_s_at) / Fold change (Aza/veh), VPS36 (ProbeSet 11739960_a_at) / Fold change (ACY-1035/veh), VPS36 (ProbeSet 11739960_a_at) / RFU SYPL1 (11715823_x_at) / Fold change /veh SYPL1 (11715823_x_at) / RFU IGFBP7 (11715501_s_at) / Fold change /veh IGFBP7 (11715501_s_at) / RFU REEP3 (11722064_at) / Fold change /veh REEP3 (11722064_at) / RFU IGLL1 (11728026_x_at) / Fold change /veh IGLL1 (11728026_x_at): dose or concentration left out as unconfirmed
Conditions: ProbeSet 11757113_a_at; LIST D

Structure (SMILES): Nc1ccc(-c2cccs2)cc1NC(=O)c1ccc2c(c1)cc(C1CC1)n2CCN1CCOCC1 [ACY-1035]
- Fold change vs veh, SNHG1 /// SNORD22 /// SNORD25 /// SNORD26 /// SNORD27 /// SNORD28 /// SNORD29 /// SNORD31: 0.87

Source: article PMC5218480 (PLoS ONE, 2017)
